Source: PubChem BioAssay (NCI)
Several values for one entry are separate records, joined by “and”; a condition that tells them apart may be missing. Equal values may be shown once.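 Test compounds were applied to cells in 96-well plates for 48 hours at 5 doses. At the GI50, growth is halved. Definition used: TGI = concentration required for complete inhibition of growth.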

What was measured:
Assay in all cases: growth of human tumour cells (NCI), 48 h
A549 NSCLC = system: A549 NSCLC
HCT-15 colon = system: HCT-15 colon
K-562 leukemia = system: K-562 leukemia
KM12 colon = system: KM12 colon
M14 melanoma = system: M14 melanoma
MOLT-4 leukemia = system: MOLT-4 leukemia
NCI/ADR-RES ovarian = system: NCI/ADR-RES ovarian
SR leukemia = system: SR leukemia
SW-620 colon = system: SW-620 colon
UACC-257 melanoma = system: UACC-257 melanoma

Structure (SMILES) | TGI (A549 NSCLC) | TGI (HCT-15 colon) | TGI (K-562 leukemia) | TGI (KM12 colon) | TGI (M14 melanoma) | TGI (MOLT-4 leukemia) | TGI (NCI/ADR-RES ovarian) | TGI (SR leukemia) | TGI (SW-620 colon) | TGI (UACC-257 melanoma) | GI50 (A549 NSCLC) | GI50 (HCT-15 colon) | GI50 (K-562 leukemia) | GI50 (KM12 colon) | GI50 (M14 melanoma) | GI50 (MOLT-4 leukemia) | GI50 (NCI/ADR-RES ovarian) | GI50 (SR leukemia) | GI50 (SW-620 colon) | GI50 (UACC-257 melanoma)
C#CCn1c2c(c3ccccc3c1=O)C(=O)c1ccccc1-2 | 57.3 µM | > 100 µM | > 100 µM | > 100 µM | > 100 µM | > 100 µM | 88.7 µM | > 100 µM | > 100 µM | > 100 µM |  |  |  |  |  |  |  |  |  | 
COc1ccc2c(ccc3oc([N+](=O)[O-])cc32)c1 | 1.04 µM | 1.53 µM | 6.14 µM | 1.21 µM | 0.186 µM | 2.69 µM | 1.05 µM | 17.6 µM | 10.8 µM | 0.43 µM | 0.274 µM | 0.221 µM | 0.0647 µM | 0.288 µM | 0.0454 µM | 0.0378 µM | 0.177 µM | 0.0748 µM | 0.178 µM | 0.137 µM
COc1cc(-c2cn(-c3ccc(F)cc3)c(=O)[nH]2)cc(OC)c1OC | > 100 µM | > 100 µM | > 100 µM | > 100 µM | > 100 µM | > 100 µM | > 100 µM | > 100 µM | > 100 µM | > 100 µM | > 100 µM | > 100 µM | > 100 µM | > 100 µM | > 100 µM | > 100 µM | > 100 µM | > 100 µM | > 100 µM | > 100 µM
COc1ccc(/C=N/C2=NNC(C)(c3ccccc3O)N2C(Cc2c[nH]c3ccccc23)C(=O)O)cc1 (stereo not given) | 30.5 µM | 11.8 µM | 11.6 µM | 10.2 µM | 8.77 µM | 13.9 µM | 14 µM | 12.4 µM | 12.1 µM | 10.8 µM | 4.44 µM | 2.81 µM | 2.38 µM | 2.6 µM | 2.35 µM | 3 µM | 2.76 µM | 2.76 µM | 3.17 µM | 3.53 µM
COc1ccc2c3c1OC1C4(CCC5C(C2)N(CC2CC2)CCC351)OCCO4 (stereo not given) | > 100 µM | > 100 µM | > 100 µM | > 100 µM | > 100 µM | > 100 µM | > 100 µM | > 100 µM | > 100 µM | > 100 µM |  |  |  |  |  |  |  |  |  | 
CN1CCN(c2ccc(NC(=O)c3cncnc3Nc3ccc4c(ccn4Cc4cccc(F)c4)c3)cc2)CC1 | 6.59 µM | 4 µM | 1.2 µM | 6.76 µM | 1.22 µM | 3.14 µM | 11 µM | 1.96 µM | 2.35 µM | 1.45 µM | 2.15 µM | 0.943 µM | 0.55 µM | 2.33 µM | 0.616 µM | 0.922 µM | 4.81 µM | 0.655 µM | 0.828 µM | 0.68 µM
CC[C@H](C)C(=O)O[C@H]1C[C@@H](C)C=C2C=C[C@H](C)[C@H](CC[C@@H]3C[C@@H](O)CC(=O)O3)[C@H]21 | > 100 µM | > 100 µM | > 100 µM | > 100 µM | > 100 µM | > 100 µM and 53.4 µM and > 30 µM | > 100 µM | 17.3 µM and 25.4 µM and > 30 µM | > 100 µM | > 100 µM | 12.1 µM | 5.46 µM and 1.47 µM | 27.7 µM and 12.8 µM | 26.4 µM | 6.25 µM and 7.89 µM | 49.2 µM and 21.4 µM | 2.63 µM and 2.95 µM | 3 µM and 3.5 µM | 10 µM and 10.1 µM | 32.5 µM and > 46.2 µM
NC1=CC(=O)C(=O)c2ccccc21 | 97.6 µM | > 100 µM | > 100 µM | 53.4 µM | 21.3 µM | > 100 µM | 53.3 µM | > 100 µM | 38.4 µM | 18.2 µM | 28.2 µM | 25.1 µM | 20.6 µM | 18.2 µM | 9.59 µM | 22.4 µM | 12.7 µM | 23.3 µM | 17.6 µM | 5.63 µM
CCN(CC)CCC(CNc1c(C)cnc2cc(Cl)ccc12)c1ccc(Cl)c(Cl)c1 (stereo not given) | 22 µM | 10.8 µM | 3.51 µM | 17.7 µM | 3.63 µM | 10.1 µM | 21.3 µM | 5.44 µM | 7 µM | 3.93 µM | 8.21 µM | 2.23 µM | 1.2 µM | 4.34 µM | 1.82 µM | 2.88 µM | 6.33 µM | 1.93 µM | 2.14 µM | 2.08 µM
Nc1n[nH]c2cc(F)c([C@@H]3Nc4c(F)cc5[nH]ncc5c4[C@H]4C5CCC(C5)[C@@H]34)cc12 (stereo not given in full) | 13.9 µM | 3.69 µM | 12.7 µM | 0.853 µM | 5.83 µM | 14.1 µM | 5.67 µM | 11.1 µM | 6.72 µM | 23.3 µM | 0.134 µM | 0.111 µM | 0.11 µM | 0.129 µM | 0.107 µM | 0.145 µM | 0.14 µM | 0.115 µM | 0.141 µM | 5.16 µM
